Results reported in US9809853B2, “Calcium-activated chloride channel involved in human sweat formation” (BRAIN Biotechnology Research and Information Network AG, priority 2012, dated 2017).

Target: T1, TMEM16A(acΔe3) (Homo sapiens, UniProt Q5XXA6)
T1 construct: expressed in transfected cells
T1 sequence (Q5XXA6 1-927 isoform Q5XXA6-4): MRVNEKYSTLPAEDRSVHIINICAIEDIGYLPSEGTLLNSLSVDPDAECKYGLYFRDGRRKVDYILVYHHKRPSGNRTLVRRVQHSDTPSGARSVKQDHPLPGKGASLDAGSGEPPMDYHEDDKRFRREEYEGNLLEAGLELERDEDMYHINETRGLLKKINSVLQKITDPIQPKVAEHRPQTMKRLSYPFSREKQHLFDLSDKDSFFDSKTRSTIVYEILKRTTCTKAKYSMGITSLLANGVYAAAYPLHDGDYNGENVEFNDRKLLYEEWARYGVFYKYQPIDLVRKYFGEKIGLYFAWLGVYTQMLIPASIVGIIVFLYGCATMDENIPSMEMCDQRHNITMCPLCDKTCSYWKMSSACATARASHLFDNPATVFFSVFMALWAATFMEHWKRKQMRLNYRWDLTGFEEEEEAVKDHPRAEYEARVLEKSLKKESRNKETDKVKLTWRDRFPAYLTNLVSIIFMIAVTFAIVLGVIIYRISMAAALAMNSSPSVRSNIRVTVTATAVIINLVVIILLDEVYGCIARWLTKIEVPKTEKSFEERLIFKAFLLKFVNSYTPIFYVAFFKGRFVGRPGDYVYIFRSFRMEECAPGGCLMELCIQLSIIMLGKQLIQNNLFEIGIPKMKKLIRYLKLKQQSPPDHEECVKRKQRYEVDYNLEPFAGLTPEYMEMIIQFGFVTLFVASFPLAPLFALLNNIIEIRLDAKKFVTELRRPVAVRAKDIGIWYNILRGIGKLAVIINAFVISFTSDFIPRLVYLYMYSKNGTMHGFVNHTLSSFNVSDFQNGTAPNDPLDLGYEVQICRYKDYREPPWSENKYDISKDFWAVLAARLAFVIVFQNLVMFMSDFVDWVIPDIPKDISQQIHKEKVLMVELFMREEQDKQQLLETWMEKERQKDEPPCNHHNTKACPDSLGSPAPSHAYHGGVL
Assay: hsYFP quenching assay in NCL-SG3-hsYFP-TMEM16A(acΔe3) cells
Type: cell-based
Conditions: 330 μM ATP; for Effect of pretreatment on hsYFP quenching / Ca^2+-dependent Cl^− secretion after ATP: cells overexpressing TMEM16A(acΔe3)
Protocol: NCL-SG3-hsYFP, NCL-SG 3-hsYFP-TMEM16A(ac) and NCL-SG3-hsYFP-TMEM16A(acΔe3) cells were untreated (basal activity) or stimulated with ATP (330 μM). Quenching of hsYFP fluorescence was determined. The rate of I^− influx (sec^−1) was calculated from the initial slope of measured hsYFP fluorescence (ΔYFP fluorescence/Δtime) and is a direct measure of CaCC activity. For better comparison fold changes compared to basal activity of parental cells are shown. […] All influx rate differences are higly statistically significant, except the basal influx rate of parental and TMEM16A(ac) overexpressing NCL-SG3-hsYFP cells (Student's t-test, two-tailed; *** p-value<0.0001).
TMEM16A(ac) and TMEM16A(acΔe3) are present in human eccrine sweat glands and were therefore obtained by RT-PCR amplification using TRIzol® (Invitrogen) extracted RNA from freshly isolated human eccrine sweat glands using oligonucleotides (forward 5′-[…]; reverse 5′-[…]) SEQ ID NOS: 5 and 6 , which amplify full-length TMEM16A, and subsequently cloned into the proprietary eukaryotic gene expression plasmid (pEF1α-TMEM16A(ac) and pEF1α-TMEM16A(acΔe3), FIG. 6A). […] Both genes are coupled by an internal ribosomal entry site (IRES) to enable efficient translation of both open reading frames located on the same mRNA. […]
Taken together, NCL-SG3-hsYFP cells can be used to monitor Ca^2+-dependent Cl^− fluxes, which represent the initial step in primary sweat formation in sweat gland cells. […] Microplates were transferred into an automated fluorescence plate reader (FlexStation®, Molecular Devices) and cellular hsYFP fluorescence was continuously recorded every 3.5 sec until end of the experiment (excitation at 485 nm, emission at 535 nm, cutoff 515 nm). […] NCL-SG3-hsYFP cells allow quantitative evaluation of in vivo Cl^− channel activity (FIGS. 9 and 10D). To determine the exact rate of Cl^− efflux/I^− influx the hsYFP fluorescence was plotted against time (ΔYFP fluorescence/Δtime). […]

| Structure (SMILES) | ATP-induced activity (I^− influx rate, fold) (TMEM16A(acΔe3) overexpressing cells) | Effect of pretreatment on hsYFP quenching / Ca^2+-dependent Cl^− secretion after ATP | Effect of pretreatment on hsYFP quenching / Ca^2+-dependent Cl^− secretion after ATP (listed as tannic acid) |
| --- | --- | --- | --- |
| Nc1ncnc2c1ncn2[C@@H]1O[C@H](COP(=O)(O)OP(=O)(O)OP(=O)(O)O)[C@@H](O)[C@H]1O [ATP] | 2 fold |  |  |
| O=C(OC[C@H]1O[C@@H](OC(=O)c2cc(O)c(O)c(OC(=O)c3cc(O)c(O)c(O)c3)c2)[C@H](OC(=O)c2cc(O)c(O)c(OC(=O)c3cc(O)c(O)c(O)c3)c2)[C@@H](OC(=O)c2cc(O)c(O)c(OC(=O)c3cc(O)c(O)c(O)c3)c2)[C@@H]1OC(=O)c1cc(O)c(O)c(OC(=O)c2cc(O)c(O)c(O)c2)c1)c1cc(O)c(O)c(OC(=O)c2cc(O)c(O)c(O)c2)c1 [TA, tannic acid] |  | significant reduction of hsYFP quenching | inhibited |
